From US10413583B2, “Synthetic substrates for enzymes that catalyze reactions of modified cysteines and related methods” (The University of Chicago, priority 2016, dated 2019)

Tested on: HEK293T cells
Assay: Live cell fluorescence imaging and flow cytometry of DPP-2 and DPP-3 in HEK293T cells
Format: cell-based, human
Details: for effect of inhibitor on DPP-3 signal: 1 μM PalmB, 1 μM ML348, 1 or 5 μM ML349 (FIGS. 10, 11)
Method: HEK293T (650,000 cells per dish) cells were plated with 1.5 mL of Dulbecco's Modified Eagle Medium (DMEM) (High Glucose, 10% fetal bovine serum (FBS)) in a 35 mm glass bottom dish (D35-10-1.5-N; Cellvis, Mountain View, Calif., United States of America) 24 hrs prior to imaging. 30 min before the addition of the DPP probe, the cell culture media was removed and cells were washed with 1 mL of Delbecco's phosphate-buffered saline (DPBS). The media was then replaced with 1 mL of DMEM containing 1 μM Hoechst 33342 and either 0.1% DMSO carrier as a control, 1 or 2 μM Palm B, 0.1, 1.0, or 5 μM ML348, and incubated for 30 min at 37° C. and 5% CO2. The media was removed, the cells were washed with 1 mL of Live Cell Imaging Solution (Thermo Fisher Scientific, Waltham, Mass., United States of America), and 1 mL of 1 μM DPP-2 or DPP-3 in Live Cell Imaging Solution was added to each plate. For ML348 0.1, 1.0, or 5 μM was added along with DPP-2 or DPP-3. After incubation for 15 min at 37° C. and 5% CO2, images were obtained on an inverted epi-fluorescence microscope (Olympus IX83; Olympus Corporation, Tokyo, Japan) attached with EMCCD camera (Photometrics EVOLVE™ Delta; Photometrics, Tucson, Ariz., United States of America) with 40× oil objective (N/A 1.3) for DPP-2 (excitation filter 500/20, dichroic chroma 89007, emission filter 535/30, exposure time 200 ms, EM gain 25), Hoechst 33342: (excitation filter 402/15, emission filter 455/50, dichroic chroma 89013, exposure time 30 ms, EM gain 25), and brightfield (exposure time 5 ms, EM gain 5), and for DPP-3 (exposure time 500 ms, EM gain 150), Hoechst 33342: (exposure time 30 ms, EM gain 25), and brightfield (exposure time 20 ms, EM gain 5). Analyses were performed in ImageJ. For data analysis, the average fluorescence intensity per image in each experimental condition was obtained by selecting regions of interest (ROIs) in the brightfield image. For display, the data were normalized to the average fluorescence intensity of the control conditions. Each experiment was repeated at least three separate times with identical results.
Cells were plated on a 10 cm dish with 10 mL of DMEM/High Glucose (10% FBS, 1% P/S, L-Glutamine, Sodium pyruvate) 36-48 hours prior to the day of experiment and maintained at 37° C., 5% CO2 so as to obtain 80-90% confluency. Cells were washed with DPBS and trypsinized with 1 mL 0.05% Trypsin. 5 mL of DMEM/High Glucose (10% FBS, L-Glutamine, Sodium pyruvate) was added and cells were spun down at 1200 rpm for 3 min. Media was discarded and cells were resuspended in 5 mL of Live Cell Imaging Solution and again spun down at 1200 rpm for 3 min. The cells pellets obtained were resuspended in 3-5 mL of Live Cell Imaging Solution and divided into 500 μL aliquots. The aliquots were treated with either 0.2% DMSO carrier or 1 μM of PalmB/ML348 or 1 μM/5 μM of ML349 inhibitor. After 30 min of incubation at room temperature, 1 μL of 2.5 mM DPP-3 in DMSO was added to each aliquot for a final concentration of 5 μM, and the solutions were mixed. After 5 min incubation at room temperature, fluorescence signal in FITC channel was measured for 10000 cells (5000 for HeLa experiments) on a LSR-Fortessa 4-15 HTS (BD digital instrument, 488 nm laser with 530/30 nm filter for FITC; BD, Franklin Lakes, N.J., United States of America). For analyzing DPP2 in HEK293T cells, the aliquots were treated with either 0.2% DMSO carrier or 2 μM of PalmB, 5 or 20 μM of ML348/ML349 and then analyzed by the protocol as mentioned above. Data was analyzed by FlowJo software version 10.0.8. For comparison of A431 starved versus non-starved, parallel 10 cm dishes of A431 cells were plated in 10 mL of DMEM (high glucose, 10% FBS, 1% P/S), and grown for 36 h. The growth media was removed, and replaced by 10 mL of either DMEM (High glucose) with 10% FBS to maintain “growth” conditions, or DMEM (High glucose) without FBS respectively for “starvation” conditions, and incubated for 14 h. […]

## CCCCCCCCCC[C@@H]1C(=O)O[C@H]1CCc1ccc(OC)c(OC)c1 [PalmB, palmostatin B]
  effect of inhibitor on DPP-3 signal: lower amounts of PalmB or ML348 were needed to perturb the signal
2 μM inhibitor
  effect of inhibitor on DPP-2 fluorescent signal: perturbed

## O=C(CN1CCN(C(=O)c2ccco2)CC1)Nc1cc(C(F)(F)F)ccc1Cl [ML348]
  effect of inhibitor on DPP-3 signal: lower amounts of PalmB or ML348 were needed to perturb the signal
5 μM inhibitor
  effect of inhibitor on DPP-2 fluorescent signal: perturbed

## COc1ccc(N2CCN(C(=O)c3cc4c(s3)-c3ccccc3S(=O)(=O)C4)CC2)cc1 [ML349]
  effect of inhibitor on DPP-3 signal: not substantially perturbed
5 μM inhibitor
  effect of inhibitor on DPP-2 fluorescent signal: perturbed
